Measured values as given in patent publication US11484539B2, “Compounds and their uses for alleviating menopause-associated symptoms” (Estetra SPRL, priority 2018, dated 2022).

Tested on: post-menopausal women
Assay: Weekly severity of moderate to severe VMS, dose-finding study
Type: in vivo
Text: To determine the Minimum Effective Dose (MED), firstly the selection criteria required that patients presented at least 7 moderate to severe VMS/day or at least 50 moderate to severe VMS/week in the week preceding randomization. Secondly, a placebo group was included in a double-blind fashion. Thirdly, the total patient number was such that statistical significance could be obtained between separate arms of the study. Fourthly, the absolute change from baseline in weekly frequency of moderate to severe VMS was taken into account. An analysis of covariance (ANCOVA) was performed based on the untransformed change in weekly frequency of moderate to severe VMS from baseline. Finally, the change in severity from baseline was evaluated. For this, the Severity Scoring System of VMS was documented by the subjects as follows: • a score of Mild (1) for a sensation of heat without sweating; • a score of Moderate (2) for a sensation of heat with sweating/the subject is able to continue activity; and • a score of Severe (3) for a sensation of heat with sweating/which causes cessation of activity.
In addition, a severity score of zero was attributed to the patients who have experienced a 100% VMS relief during a given week.
From these score records, the severity at baseline was calculated by taking into account only moderate and severe VMS, such that the total number of moderate VMS during the 7 days of the baseline week was multiplied by 2 and added to the total number of severe VMS during the 7 days of the baseline week multiplied by 3. This total was then divided by the total number of moderate and severe VMS during the baseline week.
The severity at weeks 4 and 12 was calculated using the following formula for each of these weeks: • the number of mild VMS during 7 days multiplied by 1; • the number of moderate VMS during 7 days multiplied by 2; • the number of severe VMS during 7 days multiplied by 3. and adding the 3 resulting numbers together before dividing this total by the total number of mild, moderate and severe VMS during the 7 days of the week.
This method was used to generate the data included in Example 1 further below, under section A. b) “VMS Severity”.
In order to better analyse the data recorded in this study, treatment groups have been compared using an ANCOVA (analysis of covariance) with respect to the change in severity of moderate to severe VMS from baseline to mild, moderate and severe VMS at week 4 and week 12 for each active treatment versus placebo. For women who experienced 100% VMS relief at week 4 and/or week 12, a value of zero was attributed. The ANCOVA model includes treatment (“trt1”) as a fixed effect and baseline (“base”) as a covariate. • b) Covariate significance

`C[C@]12CC[C@@H]3c4ccc(O)cc4CC[C@H]3[C@@H]1[C@@H](O)[C@@H](O)[C@@H]2O` [E4, 1,3,5 (10)-estratrien-3,15alpha,16alpha,17beta-tetrol] was tested, and the “Difference with placebo, LS adjusted mean, relative change in weekly severity of moderate to severe VMS” value (5 mg E4 vs placebo, week 12) was 0.1149, the “LS adjusted mean change from baseline in weekly severity of moderate to severe VMS” value (10 mg E4, week 4) was −0.4825 and the “LS adjusted mean relative change from baseline in weekly severity of moderate to severe VMS” value (from here on “LS adjusted mean relative change”) (10 mg E4, week 4) was −0.2016. For the same compound, the “LS adjusted mean relative change” value (10 mg E4, week 12) was −0.2862, the “Mean change from baseline in weekly severity of moderate to severe VMS” value (10 mg E4 QD per os, week 1) was −0.2028 and the “Relative change (% from baseline) in weekly severity of moderate to severe VMS, mean” value (shortened to “Relative change (% from baseline)”) (10 mg E4 QD per os, week 1) was −8%. For the same compound, the “Mean change from baseline in weekly severity of moderate to severe VMS” value (10 mg E4 QD per os, week 2) was −0.3007, the “Relative change (% from baseline)” value (10 mg E4 QD per os, week 2) was −13% and the “Mean change from baseline in weekly severity of moderate to severe VMS” value (10 mg E4 QD per os, week 3) was −0.3983. For the same compound, the “Relative change (% from baseline)” value (10 mg E4 QD per os, week 3) was −17%, the “Mean change from baseline in weekly severity of moderate to severe VMS” value (10 mg E4 QD per os, week 4) was −0.4842 and the “Relative change (% from baseline)” value (10 mg E4 QD per os, week 4) was −20%. The “Mean change from baseline in weekly severity of moderate to severe VMS” value (10 mg E4 QD per os, week 5) was −0.5107, the “Relative change (% from baseline)” value (10 mg E4 QD per os, week 5) was −21% and the “Mean change from baseline in weekly severity of moderate to severe VMS” value (10 mg E4 QD per os, week 6) was −0.6086. For the same compound, the “Relative change (% from baseline)” value (10 mg E4 QD per os, week 6) was −26%, the “Mean change from baseline in weekly severity of moderate to severe VMS” value (10 mg E4 QD per os, week 7) was −0.643 and the “Relative change (% from baseline)” value (10 mg E4 QD per os, week 7) was −27%. For the same compound, the “Mean change from baseline in weekly severity of moderate to severe VMS” value (10 mg E4 QD per os, week 8) was −0.6644, the “Relative change (% from baseline)” value (10 mg E4 QD per os, week 8) was −28% and the “Mean change from baseline in weekly severity of moderate to severe VMS” value (10 mg E4 QD per os, week 9) was −0.6864. For the same compound, the “Relative change (% from baseline)” value (10 mg E4 QD per os, week 9) was −28%, the “Mean change from baseline in weekly severity of moderate to severe VMS” value (10 mg E4 QD per os, week 10) was −0.709 and the “Relative change (% from baseline)” value (10 mg E4 QD per os, week 10) was −29%. The “Mean change from baseline in weekly severity of moderate to severe VMS” value (10 mg E4 QD per os, week 11) was −0.666, the “Relative change (% from baseline)” value (10 mg E4 QD per os, week 11) was −25% and the “Mean change from baseline in weekly severity of moderate to severe VMS” value (10 mg E4 QD per os, week 12) was −0.6941. The “Relative change (% from baseline)” value (10 mg E4 QD per os, week 12) was −28%, the “Difference with placebo, LS adjusted mean, absolute change in weekly severity of moderate to severe VMS” value (10 mg E4 vs placebo, week 4) was −0.1547 and the “Difference with placebo, LS adjusted mean, relative change in weekly severity of moderate to severe VMS” value (10 mg E4 vs placebo, week 4) was −0.06058. The “Difference with placebo, LS adjusted mean, absolute change in weekly severity of moderate to severe VMS” value (10 mg E4 vs placebo, week 12) was −0.03512, the “Difference with placebo, LS adjusted mean, relative change in weekly severity of moderate to severe VMS” value (10 mg E4 vs placebo, week 12) was −0.006415 and the “LS adjusted mean change from baseline in weekly severity of moderate to severe VMS” value (15 mg E4, week 4) was −0.5888. The “LS adjusted mean relative change” value (15 mg E4, week 4) was −0.2427, the “LS adjusted mean relative change” value (15 mg E4, week 12) was −0.4375 and the “Mean change from baseline in weekly severity of moderate to severe VMS” value (15 mg E4 QD per os, week 1) was −0.072. The “Relative change (% from baseline)” value (15 mg E4 QD per os, week 1) was −3%, the “Mean change from baseline in weekly severity of moderate to severe VMS” value (15 mg E4 QD per os, week 2) was −0.2853 and the “Relative change (% from baseline)” value (15 mg E4 QD per os, week 2) was −12%. The “Mean change from baseline in weekly severity of moderate to severe VMS” value (15 mg E4 QD per os, week 3) was −0.4842, the “Relative change (% from baseline)” value (15 mg E4 QD per os, week 3) was −20% and the “Mean change from baseline in weekly severity of moderate to severe VMS” value (15 mg E4 QD per os, week 4) was −0.5897. For the same compound, the “Relative change (% from baseline)” value (15 mg E4 QD per os, week 4) was −24%, the “Mean change from baseline in weekly severity of moderate to severe VMS” value (15 mg E4 QD per os, week 5) was −0.7432 and the “Relative change (% from baseline)” value (15 mg E4 QD per os, week 5) was −31%. For the same compound, the “Mean change from baseline in weekly severity of moderate to severe VMS” value (15 mg E4 QD per os, week 6) was −0.7035, the “Relative change (% from baseline)” value (15 mg E4 QD per os, week 6) was −30% and the “Mean change from baseline in weekly severity of moderate to severe VMS” value (15 mg E4 QD per os, week 7) was −0.8112. For the same compound, the “Relative change (% from baseline)” value (15 mg E4 QD per os, week 7) was −34%, the “Mean change from baseline in weekly severity of moderate to severe VMS” value (15 mg E4 QD per os, week 8) was −0.8854 and the “Relative change (% from baseline)” value (15 mg E4 QD per os, week 8) was −37%. For the same compound, the “Mean change from baseline in weekly severity of moderate to severe VMS” value (15 mg E4 QD per os, week 9) was −0.9092, the “Relative change (% from baseline)” value (15 mg E4 QD per os, week 9) was −38% and the “Mean change from baseline in weekly severity of moderate to severe VMS” value (15 mg E4 QD per os, week 10) was −0.9628. The “Relative change (% from baseline)” value (15 mg E4 QD per os, week 10) was −40%, the “Mean change from baseline in weekly severity of moderate to severe VMS” value (15 mg E4 QD per os, week 11) was −1.0123 and the “Relative change (% from baseline)” value (15 mg E4 QD per os, week 11) was −42%. For the same compound, the “Mean change from baseline in weekly severity of moderate to severe VMS” value (15 mg E4 QD per os, week 12) was −1.0425, the “Relative change (% from baseline)” value (15 mg E4 QD per os, week 12) was −44% and the “Difference with placebo, LS adjusted mean, absolute change in weekly severity of moderate to severe VMS” value (15 mg E4 vs placebo, week 4) was −0.261. The “Difference with placebo, LS adjusted mean, relative change in weekly severity of moderate to severe VMS” value (15 mg E4 vs placebo, week 4) was −0.1017, the “Difference with placebo, LS adjusted mean, absolute change in weekly severity of moderate to severe VMS” value (15 mg E4 vs placebo, week 12) was −0.3838 and the “Difference with placebo, LS adjusted mean, relative change in weekly severity of moderate to severe VMS” value (15 mg E4 vs placebo, week 12) was −0.1577. For the same compound, the “Reduction in the severity of moderate to severe VMS when compared to baseline” value (15 mg daily dose) was “over 40%”.
